# Records with an inconclusive call do not appear. Activity calls are given as the source filed them.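 Rule for the calls: active = compound lowering the normal-ribosome reporter at least twice as much as the humanized-ribosome reporter, growth loss under a set limit; inconclusive = no clear call, values can overlap the other calls; inactive = the rest.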
# Test system: E. coli WT-GFP vs G2058-humanized RFP, fluorescence, 24 h
# Assay: growth inhibition of wild-type GFP E. coli versus G2058-humanized strain, dose response, G2058 mutant RFP vs wild-type GFP, cherry-pick, two tests (AID 1035470)
# [1] = E. coli WT-GFP vs G2058-humanized RFP mixed culture, total growth OD600, 24 h
# [2] = measured here: G2058 humanized mutant RFP growth
SMILES,AC50,AC50 [1],AC50 [2]
COc1cccc(NC(=O)COC(=O)Cc2ccccc2[N+](=O)[O-])c1,> 100 µM (inactive),> 100 µM,
CC(C)C[C@@H](CSc1ccccc1)N1CCN(CC(C)C)CCC1=O,> 100 µM (inactive),> 100 µM,
O=[N+]([O-])c1ccccc1Oc1ccc(Cl)c2cccnc12,> 100 µM (inactive),,
COC(=O)c1cccc(CN2C(=O)SC(Nc3ccc(C)cc3)C2=O)c1 (configuration not stated),> 100 µM (inactive),,
CCC(=O)Nc1nc2ccc(NC(=O)c3cc(OC)c(OC)c(OC)c3)cc2s1,> 100 µM (inactive),,
O=C1c2ccccc2CSc2c(O)cccc21,> 100 µM (inactive),,
O=C(Cn1cc(COc2c(F)c(F)cc(F)c2F)nn1)c1ccc(O)cc1,> 100 µM (inactive),> 100 µM,
CC(C)(C)C1CCC(OC(=O)C[N+]2(C)CCCCC2)CC1 (configuration not stated),> 100 µM (inactive),> 100 µM,
COC(=O)C1CCN(C(=O)c2ccc(OC)c(S(=O)(=O)N3CCCc4ccccc43)c2)CC1,> 100 µM (inactive),,
CCN(CC)c1nc(Oc2ccc(C(=O)OC)cc2)nc(N2CCOCC2)n1,> 100 µM (inactive),,
Cc1cccc(Nc2nc(-c3ccc(F)cc3)cs2)n1,> 100 µM (inactive),> 100 µM,
O=S1(=O)c2ccc(Br)cc2OCCC2CCCCN21 (configuration not stated),> 100 µM (inactive),> 100 µM,
C=CCSc1cc(C)nc2c(-c3ccccc3)c(C)nn12,> 100 µM (inactive),,
CCOC(=O)C1NN=C(C(=O)c2ccccc2)C1c1ccc(OC)cc1 (configuration not stated),,> 100 µM,
Cc1cccc(C)c1-n1nnnc1C1(C)CCC(=O)N1Cc1cccs1 (configuration not stated),> 100 µM (inactive),,
CCN(CC)CC(=O)Nc1sc2c(c1C(=O)c1ccccc1OC)CCC2,> 100 µM (inactive),,
COc1ccc(C(=O)C[n+]2ccc3c(c2)nc(-c2cc(OC)c(OC)cc2OC)n3C)cc1,,> 100 µM,
CCOc1ccc2nc(N(CCN(C)C)C(=O)c3ccc4ccccc4c3)sc2c1,> 100 µM (inactive),,
COc1ccc(NC(=O)CSc2n[nH]c(-c3ccncc3)n2)c([N+](=O)[O-])c1,,> 100 µM,
CC(C)NC(=O)N(C)C[C@H]1OCCCC[C@@H](C)Oc2ccc(NC(=O)c3ccccc3)cc2C(=O)N([C@@H](C)CO)C[C@H]1C,> 100 µM (inactive),,
CCCCNC(=O)c1onc(CSc2cc(C)cc(C)c2)c1C(=O)O,> 100 µM (inactive),37.3 µM,
COc1ccc2c(c1)c1ncn(Cc3ccccn3)c(=O)c1n2C,> 100 µM (inactive),> 100 µM,
O=C(Nc1ccc(C(=O)Nc2ccccc2Cl)cc1)c1cccnc1,> 100 µM (inactive),,8.17 µM

SMILES,AC50,AC50 [1],AC50 [2]
COc1ccc(NC(=O)Nc2cccc3c2O[C@H](CN(C)S(=O)(=O)c2ccc(Cl)cc2)[C@@H](C)CN([C@H](C)CO)C3=O)cc1,> 100 µM (inactive),,
C=CCn1c(C)cc(C(=O)COC(=O)CNC(=O)c2ccccc2)c1C,> 100 µM (inactive),,
Nc1ccccc1Sc1ccc(C(F)(F)F)cc1[N+](=O)[O-],> 100 µM (inactive),> 100 µM,> 100 µM
COc1ccc(NC(=O)Nc2cccc3c2O[C@@H](CN(C)S(=O)(=O)c2ccc(Cl)cc2)[C@@H](C)CN([C@@H](C)CO)C3=O)cc1,> 100 µM (inactive),,
O=S(=O)(NOCc1ccc(Cl)cc1)c1ccc(Cl)cc1,,> 100 µM,
O=C(NCc1ccc2c(c1)OCO2)c1sccc1Br,> 100 µM (inactive),> 100 µM,
OCCN(Cc1ccccc1)Cc1ccc(F)c(F)c1,> 100 µM (inactive),,
Cc1cc(C(=O)OCC(=O)Nc2cccc(S(N)(=O)=O)c2)c2ccccc2n1,> 100 µM (inactive),,
OC(COc1ccc(Cl)cc1)CN1CCN(c2ccccn2)CC1 (configuration not stated),> 100 µM (inactive),,
COc1ccc(-c2cc(C(=O)N3CCc4ccccc4C3)no2)cc1,> 100 µM (inactive),,
COc1ccc(C#Cc2ccc([C@@H]3[C@@H](CO)N4CCCCN(C(=O)Nc5ccccc5F)C[C@H]34)cc2)cc1,> 100 µM (inactive),,
C=C(C)Cn1c(=O)c2c(nc3n2CC(C)CN3Cc2ccccc2)n(C)c1=O (configuration not stated),> 100 µM (inactive),,
COc1cccc(C(=O)Nc2nnc(S(=O)(=O)N(C)Cc3ccccc3)s2)c1,> 100 µM (inactive),> 100 µM,
Cc1onc(-c2ccccc2Cl)c1C(=O)Nc1ccc(Cl)cn1,,> 100 µM,
O=S(=O)(NC1c2cccc3cccc(c23)C1Sc1ncccn1)c1ccccc1 (configuration not stated),> 100 µM (inactive),3.21 µM,
O=C(Nc1nc2ccccc2n1CCN1CCOCC1)c1ccccc1,> 100 µM (inactive),,
CC(=O)Nc1cccc(OCCCOc2cccc([N+](=O)[O-])c2)c1,> 100 µM (inactive),> 100 µM,
CC(C)Nc1nnc(SCC(=O)Nc2sccc2C#N)s1,> 100 µM (inactive),,
O=C(NCc1ccccc1Cl)c1ccc2c(c1)SC1=NS(=O)(=O)CCN12,> 100 µM (inactive),> 100 µM,
CCn1c(-c2ccccc2Cl)nn(CC(=O)Nc2ccccc2OC)c1=S,> 100 µM (inactive),,
N#Cc1ccc(-c2ccc(C3[C@H]4CNC[C@@H]3N4S(=O)(=O)c3ccc(-c4ccccc4)cc3)cc2)cc1 (some centres not stated),,> 100 µM,
Cc1ncoc1C(=O)NCCC(c1ccccc1)c1ccccc1,> 100 µM (inactive),,
COC(=O)c1ccc2nc(-c3ccco3)c(Cc3ccc(C)cc3)n2c1,,> 100 µM,
